Laboratory results reported in patent US20240360114A1 (SIRONAX LTD., priority 2021, published 2024).

Test system: HT-1080 cells
Experiment: HT-1080 cell viability assay (ferroptosis induced by RSL3, Cell Titer-Glo)
Format: cell-based
Details: ferroptosis inducer RSL3, 20 hours, ferroptosis inhibitory activity
How it was run: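 Cells seeded overnight, then co-treated with RSL3 and compound (3-fold, 10-point dilution, top 1.1 μM) for 20 hours. Viability by CellTiter-Glo luminescence, normalized to untreated controls; EC50 from sigmoidal non-linear regression.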

[1] = Homo sapiens, HT-1080, 20 h, Table 2
[2] = Homo sapiens, HT-1080, 20 h, Table 3

Row | EC50 [1] | SMILES | other results
1 | 100 to 1000 nM | CC(C)(C)c1ccc(NC2CCC(N)CC2)cc1Cl (stereo not shown) [Compound 201, N1-(4-(tert-butyl)-3-chlorophenyl)cyclohexane-1,4-diamine] | 
2 | 0.1 to 100 nM | Cc1nc(N(C)CC(F)(F)F)ccc1NC1CC2(CC(N)C2)C1 (stereo not shown) [Compound 558, N^5-(6-aminospiro [3.3]heptan-2-yl)-N2,6-dimethyl-N2-(2,2,2-trifluoroethyl)pyridine-2,5-diamine] | 
3 | 0.1 to 100 nM | CC(C)(C)c1ccc(NC2CC3CC(N)CC3C2)cc1 (stereo not shown) [Compound 277, N2-(4-(tert-butyl)phenyl) octahydropentalene-2,5-diamine] | 
4 | 0.1 to 100 nM | CC(C)C1CCN(c2ncc(NC3CC4(CC(NCC(F)F)C4)C3)cn2)CC1 (stereo not shown) [Compound 413, N2-(2,2-difluoroethyl)-N6-(2-(4-isopropylpiperidin-1-yl)pyrimidin-5-yl)spiro[3.3]heptane-2,6-diamine] | 
5 | 0.1 to 100 nM | Cc1nc(N2CCSCC2)ccc1NC1CC2(CC(N)C2)C1 (stereo not shown) [Compound 569, N^2-(2-methyl-6-thiomorpholinopyridin-3-yl) spiro[3.3]heptane-2,6-diamine] | 
6 |  | Cc1nc(N2CCN(C)C(C(F)(F)F)C2)ccc1NC1CC2(CC(N)C2)C1 (stereo not shown) [Compound 606, N2-(2-methyl-6-(4-methyl-3-(trifluoromethyl)piperazin-1-yl)pyridin-3-yl)spiro[3.3]heptane-2,6-diamine] | EC50 [2]: 0.1 to 100 nM
7 |  | Cc1nc(NC(C)(C)C)ccc1NC[C@H]1CC[C@H](N)CC1 [Compound 595, N^5-(((1r,4r)-4-aminocyclohexyl)methyl)-N^2-(tert-butyl)-6-methylpyridine-2,5-diamine] | EC50 [2]: 0.1 to 100 nM
8 |  | CCc1nc(N2CC(C)N(CC(F)(F)F)C(C)C2)c(F)cc1NC1CC(N)C1 (stereo not shown) [Compound 635, N1-(6-(3,5-dimethyl-4-(2,2,2-trifluoroethyl)piperazin-1-yl)-2-ethyl-5-fluoropyridin-3-yl)cyclobutane-1,3-diamine] | EC50 [2]: 0.1 to 100 nM
9 | 0.1 to 100 nM | CC(C)C1CCN(c2ncc(NC[C@H]3CC[C@H](NC(=O)C4CNC(=O)C4)CC3)cn2)CC1 (stereo partly shown) [Compound 367, N-((1r,4r)-4-(((2-(4-isopropylpiperidin-1-yl)pyrimidin-5-yl)amino)methyl)cyclohexyl)-5-oxopy rrolidine-3-carboxamide] | 
10 | 100 to 1000 nM | CC(C)(C)c1ccc(NC2CCC(NC(=O)C3CNC(=O)C3)CC2)cc1 (single isomer, unassigned) [Compound 114A, N-(4-((4-(tert-butyl)phenyl)amino)cyclohexyl)-5-oxopyrrolidine-3-carboxamide] | 
11 | 0.1 to 100 nM | COCCOc1cc(NC2CCC(N)CC2)ccc1C(C)(C)C (stereo not shown) [Compound 301A, N1-(4-(tert-butyl)-3-(2-methoxyethoxy)phenyl)cyclohexane-1,4-diamine] | 
12 | 0.1 to 100 nM | Cc1nc(N2CCC3(CCCCO3)CC2)ccc1NC1CC2(CC(N)C2)C1 (stereo not shown) [Compound 509, N2-(2-methyl-6-(1-oxa-9-azaspiro [5.5]undecan-9-yl)pyridin-3-yl)spiro[3.3]heptane-2,6-diamine] | 
13 | 0.1 to 100 nM | CC(C)(C)c1ccc(NC2CCC(N)CC2)cc1F (stereo not shown) [Compound 242A, N1-(4-(tert-butyl)-3-fluorophenyl)cyclohexane-1,4-diamine 2,2,2-trifluoroacetate] | 
14 | 100 to 1000 nM | COCC1CCC(Nc2ccc(C3CCC(C)(C)CC3)cc2)CC1 (stereo not shown) [Compound 75] | 
15 | 0.1 to 100 nM | CC(CN1CCCC1)Nc1ccc(C2CCC(C)(C)CC2)cc1 (stereo not shown) [Compound 297, 4-(4,4-dimethylcyclohexyl)-N-(1-(pyrrolidin-1-yl)propan-2-yl)aniline] | 
16 |  | CC1(C)CCC(c2ccc(NC3CCC(C(N)=O)CC3)cc2)CC1 (single isomer, unassigned) [Compound 159B, 4-((4-(4,4-dimethylcyclohexyl)phenyl)amino)cyclohexane-1-carboxamide] | EC50 (Table 2): 100 to 1000 nM
17 | 0.1 to 100 nM | CC1CN(c2ccc(NC[C@H]3CC[C@H](N)CC3)cc2)CC(C)N1CC(F)(F)F (stereo partly shown) [Compound 467, N-(((1r,4r)-4-aminocyclohexyl)methyl)-4-(3,5-dimethyl-4-(2,2,2-trifluoroethyl)piperazin-1-yl)aniline] | 
18 | 0.1 to 100 nM | Cc1nc(N2C[C@@H](C)N(CC(F)(F)F)[C@@H](C)C2)ccc1NC[C@H]1CC[C@H](N)CC1 [Compound 543, N-(((1r,4R)-4-aminocyclohexyl)methyl)-6-((3R,5S)-3,5-dimethyl-4-(2,2,2-trifluoroethyl)piperazin-1-yl)-2-methylpyridin-3-amine] | 
19 | 100 to 1000 nM | CC(C)(C)Nc1ccc(N2CCC(C(F)(F)F)CC2)cc1 [Compound 11, N-(tert-butyl)-4-(4-(trifluoromethyl)piperidin-1-yl)aniline] | 
20 | 0.1 to 100 nM | CC1CCC(Nc2ccc(N3CCC(C(F)(F)F)CC3)cc2)CC1 (stereo not shown) [Compound 4A, N-(4-methylcyclohexyl)-4-(4-(trifluoromethyl)piperidin-1-yl)aniline] | 
21 | 0.1 to 100 nM | CC(C)C1CCN(c2ncc(NC[C@H]3C[C@H](N)C3)cn2)CC1 [Compound 448, N-(((1r,3r)-3-aminocyclobutyl)methyl)-2-(4-isopropylpiperidin-1-yl)pyrimidin-5-amine] | 

Row | EC50 [1] | SMILES | other results
22 | 0.1 to 100 nM | CC1CC(C)CN(c2ncc(NC3CC4(CC(NC(=O)C(N)=O)C4)C3)cn2)C1 (stereo not shown) [Compound 425, N1-(6-((2-(3,5-dimethylpiperidin-1-yl)pyrimidin-5-yl)amino)spiro[3.3]heptan-2-yl)oxalamide] | 
23 | 0.1 to 100 nM | CC1(N)CCC(Nc2ccc3c(c2)CCC3)CC1 (stereo not shown) [Compound 99, N1-(2,3-dihydro-1H-inden-5-yl)-4-methylcyclohexane-1,4-diamine] | 
24 | 0.1 to 100 nM | Cc1nc(N2C[C@@H](C)O[C@@H](C)C2)ccc1NC1CC2(CC(N)C2)C1 (stereo partly shown) [Compound 488A, N2-(6-(2,6-dimethylmorpholino)-2-methylpyridin-3-yl)spiro[3.3]heptane-2,6-diamine] | 
25 |  | CC1CN(c2ccc3cc(NC4CC(N)C4)ccc3c2)CCO1 (stereo not shown) [Compound 630, N^1-(6-(2-methylmorpholino)naphthalen-2-yl)cyclobutane-1,3-diamine] | EC50 (Table 3): 0.1 to 100 nM
26 | 0.1 to 100 nM | CC(C)C1CCN(c2ncc(NC[C@H]3CC[C@H](N)CC3)cn2)CC1 [Compound 360, N-(((1r,4r)-4-aminocyclohexyl)methyl)-2-(4-isopropylpiperidin-1-yl)pyrimidin-5-amine] | 
27 | 0.1 to 100 nM | CCNc1ccc(N2CCC(C(F)(F)F)CC2)cc1 [Compound 13, N-ethyl-4-(4-(trifluoromethyl)piperidin-1-yl)aniline] | 
28 | 0.1 to 100 nM | CC(C)C1CCN(c2ncc(NC3CCNC3)cn2)CC1 (stereo not shown) [Compound 36, 2-(4-isopropylpiperidin-1-yl)-N-(pyrrolidin-3-yl)pyrimidin-5-amine] | 
29 | 1000 to 10000 nM | NC1CCC(Nc2ccc(Br)cc2)CC1 (stereo not shown) [Compound 165, N1-(4-bromophenyl)cyclohexane-1,4-diamine] | 
30 | 1000 to 10000 nM | CC(C)(C)c1ccccc1NC1CCC(N)CC1 (stereo not shown) [Compound 126, N1-(2-(tert-butyl)phenyl)cyclohexane-1,4-diamine] | 
31 |  | CC1CN(c2ccc3cc(N[C@H]4CC[C@@H](C(N)=O)CC4)ccc3c2)CC(C)O1 (stereo partly shown) [Compound 632, (1s,4s)-4-((6-(2,6-dimethylmorpholino)naphthalen-2-yl)amino)cyclohexane-1-carboxamide] | EC50 [2]: 0.1 to 100 nM
32 | 0.1 to 100 nM | CC1CN(c2ccc3cc(NC4CC5(CC(N)C5)C4)ncc3c2)CC(C)O1 (stereo not shown) [Compound 570, N2-(7-(2,6-dimethylmorpholino)isoquinolin-3-yl)spiro[3.3]heptane-2,6-diamine] | 
33 | 1000 to 10000 nM | CC1(C)CN(c2ncc(NC3CCC(N)CC3)cn2)C1 (stereo not shown) [Compound 33A, N1-(2-(3,3-dimethylazetidin-1-yl)pyrimidin-5-yl)cyclohexane-1,4-diamine] | 
34 | 0.1 to 100 nM | CCC(C)(C)c1ccc(NC2CCC(N)(CO)CC2)cc1 (stereo not shown) [Compound 296A, (1-amino-4-((4-(tert-pentyl)phenyl)amino)cyclohexyl)methanol] | 
35 | 0.1 to 100 nM | CC(C)C1CCN(c2ncc(NC3C4CC5CC3CC(CN)(C5)C4)cn2)CC1 (stereo not shown) [Compound 370, N-(5-(aminomethyl)adamantan-2-yl)-2-(4-isopropylpiperidin-1-yl)pyrimidin-5-amine] | 
36 | 0.1 to 100 nM | Cc1nc(N2CC(C)(C)OC(C)(C)C2)ccc1NC1CC2(CC(N)C2)C1 (stereo not shown) [Compound 515, N2-(2-methyl-6-(2,2,6,6-tetramethylmorpholino)pyridin-3-yl)spiro[3.3]heptane-2,6-diamine] | 
37 | 0.1 to 100 nM | CCc1c(C)cc(NC2CCC(N)CC2)cc1C (stereo not shown) [Compound 281, N1-(4-ethyl-3,5-dimethylphenyl)cyclohexane-1,4-diamine] | 
38 | 0.1 to 100 nM | Cc1nc(N2C[C@@H](C)N(CC(F)(F)F)[C@@H](C)C2)ccc1NC1CCC(N)C1 (stereo partly drawn) [Compound 541, N1-(6-((3R,5S)-3,5-dimethyl-4-(2,2,2-trifluoroethyl)piperazin-1-yl)-2-methylpyridin-3-yl)cyclopentane-1,3-diamine] | 
39 | 0.1 to 100 nM | Cc1nc(N2C[C@@H](C)N(CC(F)(F)F)[C@@H](C)C2)ccc1NC1CCC(N)CC1 (stereo partly shown) [Compound 542] | 
40 | 100 to 1000 nM | Cc1cc(NC2CC3(CC(N)C3)C2)cnc1N1C[C@H](C)O[C@@H](C)C1 (stereo in doubt) [Compound 480, N2-(6-((25,6S)-2,6-dimethylmorpholino)-5-methylpyridin-3-yl)spiro[3.3]heptane-2,6-diamine] | 
41 |  | C[C@@H]1CN(c2ccc3cc(NC4CC(CN)C4)ccc3c2)C[C@H](C)O1 (stereo partly drawn) [Compound 649, N-(3-(aminomethyl)cyclobutyl)-6-((2S,6R)-2,6-dimethylmorpholino) naphthalen-2-amine] | EC50 [2]: 0.1 to 100 nM

Row | SMILES | EC50 [1] | other results
42 | COCCCCOc1cc(NC2CCC(N)CC2)ccc1C(C)(C)C (stereo not shown) [Compound 254, N1-(4-(tert-butyl)-3-(4-methoxybutoxy)phenyl)cyclohexane-1,4-diamine] | 0.1 to 100 nM | 
43 | Cc1nc(N2C3COCC2C3)ccc1NC1CC2(CC(N)C2)C1 (stereo not shown) [Compound 523, N2-(6-(3-oxa-6-azabicyclo[3.1.1]heptan-6-yl)-2-methylpyridin-3-yl)spiro[3.3]heptane-2,6-diamine] | 1000 to 10000 nM | 
